Results from patent US5830504A, “Cooperative combinations of ligands contained within a matrix” (La Jolla Cancer Research Foundation, priority 1995, dated 1998).

Assays:
Assay type in all cases: cell-based
Rat-1 cells = assay: DNA synthesis ([3H]-thymidine incorporation) in EGF-stimulated Rat-1 cells on vitronectin or collagen; settings: 40 ng/ml EGF, 20 μg/ml coating, FIG. 6
Experimental: Rat-1 cells were plated at 1×10^5 cells/well on 24-well plates that had been coated for 12 hours either with 20 μg/ml of vitronectin or 20 μg/ml of type I collagen. Cells were incubated for 36 hours in Dulbecco's modified Eagle's medium containing 0.1% bovine serum albumin followed by addition of buffer or 40 ng/ml EGF (Boehringer Mannheim). After 15 hours, the cells were pulse-labeled with 1 μCi/ml [^3 H]-thymidine (specific activity 6.7 Ci/mmol, DuPont NEN) for 3 hours and thymidine incorporation into DNA was determined by liquid scintillation counting.
After being serum-starved, the cells were treated with buffer only (samples 1 and 2) or with EGF (samples 3 and 4). Data points are the average of triplicate samples.

[1] = tested on: FG-B human pancreatic carcinoma cells (αv β3 integrin positive); assay: DNA synthesis ([3H]-thymidine incorporation into DNA) in insulin-stimulated FG-B cells on vitronectin or type I collagen; settings: 100 mM insulin, plates coated with 10 μg/ml vitronectin or type I collagen, FIG. 4 columns 9, 10
Experimental: (§1) FG-B (columns 1, 2, 5, 6, 9, and 10) and FG-C cells (columns 3, 4, 7, 8, 11, and 12) were plated at 1×10^5 cells/well on 24-well plates that had been coated either with vitronectin (dark column) or type I collagen (open column) . Plates were coated with 10 μg/ml of either vitronectin or type I collagen for 12 hours followed by blocking with 0.5% bovine serum albumin For 2 hours. Cells were incubated for 36 hours in DMEM containing 10% FCS (columns 1 to 4), or in DMEM containing 0.1% BSA followed by addition of buffer (columns 5 to 8) or 100 mM insulin (columns 9 to 12). FCS is used as a control because it provides maximal stimulation owing to the presence of high levels of growth factors and adhesion proteins.
(§2) After 15 hours, the cells were pulse-labeled with 1 μCi/ml [^3 H]-thymidine (specific activity 6.7 Ci/mmol, DuPont NEN) for 3 hours and thymidine incorporation into DNA was determined by trichloroacetic acid precipitation and liquid scintillation counting. Error bars indicate the standard error of triplicate determinations.

[2] = tested on: FG-C human pancreatic carcinoma cells (αv β3 integrin negative); assay: DNA synthesis ([3H]-thymidine incorporation into DNA) in insulin-stimulated FG-C cells on vitronectin or type I collagen; settings: FG-C cells lacking αv β3; 100 mM insulin; FIG. 4 columns 3, 4, 7, 8, 11, 12
Experimental: as §1, §2

[3] = tested on: αv β3 integrin-IRS-1 association in HIRcB cells; assay: Association of IRS-1 with the vitronectin receptor after insulin stimulation (immunoprecipitation, immunoblot, densitometry); settings: insulin-stimulated HIRcB cells; 100 nM insulin; compared with IRS-1 from total cell lysate
Experimental: HIRcB cells were grown to 80% confluency in Dulbeccos's modified Eagle's medium (DMEM) containing 10% fetal calf serum (FCS) and 500 nM methotrexate, incubated in DMEM+0.1% BSA for 36 hours, and either left quiescent, or stimulated with 100 nM insulin (Sigma) for 3 minutes. Cell monolayers were rinsed with PBS, frozen with liquid nitrogen and lysed in NP-40 lysis buffer (20 mM Tris-HCl (pH 8.0), 1% NP-40, 10% glycerol, 137 mM NaCl, 1 mM CaCl2, 1 mM MgCl2, 1 mM sodium orthovanadate, 50 mM sodium fluoride, 1 mM phenylmethylsulfonylfluoride, 0.1 U/ml aprotinin, 10 μg/ml pepstatin A). HIRcB cells were immunoprecipitated with anti-αv β3 237 according to Suzuki et al., PNAS USA 83:8614 (1986), as shown in lanes 1 and 3, 237 preimmune serum in lane 2, anti-αv β3 1343 in lane 4, anti-αIIb β3 in lane 5, anti-α5 β1 488 in lane 6 (made according to Argraves et al., J. Cell Biol. 105:1183 (1987)) and an unrelated rabbit antiserum (lane 7). Anti-αv β3 1343 was obtained from a person (Telios Pharmaceuticals, Inc.) and anti-αIIb β3 from Dr. Elisabetta Dejana (Mario Negri Institute, Milan, Italy). Three anti-α5 β1 antibodies and six unrelated polyclonal antibodies tested gave results similar to those shown in lanes 6 and 7. […] In lane 8, anti-αv β3 237 immunocomplexes from insulin-treated cells were dissociated and reprecipitated with the same antibody as follows. […]

NRK cells = assay: DNA synthesis in IGF-1-stimulated NRK cells on vitronectin, collagen or laminin; settings: data not shown
[4] = tested on: human foreskin fibroblasts; assay: DNA synthesis ([3H]-thymidine incorporation) in PDGF-stimulated human foreskin fibroblasts on vitronectin or collagen; settings: 40 ng/ml PDGF-BB, 20 μg/ml coating, FIG. 5 column 3 vs 4
Experimental: Human foreskin fibroblasts (Coriell) were plated at 1×10^5 cells/well on 24-well plates that had been coated for 12 hours either with 20 μg/ml of vitronectin of 20 μg/ml of type I collagen. Cells were incubated for 36 hours in Dulbecco's modified Eagle's medium containing 0.1% bovine serum albumin followed by addition of buffer or 40 ng/ml PDGF-BB (Boehringer Mannheim). After 15 hours, the cells were pulse-labeled with 1 μCi/ml [^3 H]-thymidine (specific activity 6.7 Ci/mmol, DuPont NEN) for 3 hours and thymidine incorporation into DNA was determined by liquid scintillation counting.
Cells were serum-starved and treated with buffer only (samples 1 and 2) or with PDGF (samples 3 and 4). Data points are the average of duplicate samples.

Substance: Epidermal growth factor (NSDSECPLSHDGYCLHDGVCMYIEALDKYACNCVVGYIGERCQYRDLKWWELR; Epidermal growth factor; UniProt P01133 971-1023, looked up) [EGF, EGF from Boehringer Mannheim]
- Response (DNA synthesis) to EGF on vitronectin versus collagen (Rat-1 cells): same response

Substance: insulin
- DNA synthesis in response to insulin, on vitronectin relative to collagen [1]: about 2.5 fold
- Difference in DNA synthesis response on vitronectin and collagen [2]: no difference
- Share of IRS-1 complexed with the vitronectin receptor [3]: Five to eight

Substance: insulin-like growth factor [IGF-1]
- DNA synthesis in response to IGF-1, on vitronectin relative to collagen or laminin (NRK cells): about 2.3 fold

Substance: platelet derived growth factor [PDGF]
- DNA synthesis in response to PDGF, on vitronectin relative to collagen [4]: about 2.3 fold
